Experimental data from patent publication US20250332173A1, “COMPOUNDS AND METHODS FOR MODULATING NUCLEIC ACID SPLICING” (REMIX THERAPEUTICS INC., priority 2021, published 2025).
Like-named read-outs stand apart in the source and are kept apart here.

Columns and labels:
HTT mRNA = assay: RT-qPCR splicing assay, HTT canonical junction (CJ) and alternative junction (AJ) mRNA; assay type: cell-based, human; conditions: Homo sapiens; for AC50: increase in HTT alternative junction (AJ) mRNA, read-out: HTT AJ AC50
Method in brief: (§1)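 Following a 24-hour incubation of A673 or K562 cells with serially diluted compound (3-fold steps, highest final 10 uM), the lysates undergo cDNA synthesis plus qPCR. Canonical and alternative junctions are each quantified against PPIA, GAPDH or GUSB.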

MYB mRNA = assay: RT-qPCR splicing assay, MYB canonical junction (CJ) and alternative junction (AJ) mRNA; assay type: cell-based, human; conditions: Homo sapiens; for AC50: increase in MYB alternative junction (AJ) mRNA, read-out: MYB AJ AC50
Method in brief: as §1

[1] = tested on: K562 (human chronic myelogenous leukemia) cells; assay: Cell Titer Glo 2.0 cell viability assay; assay type: cell-based; conditions: Homo sapiens, K562, 72 h, K562 cells, 72 hours, Cell Titer Glo 2.0; read-out: K562 GI50
Target C = assay: HiBiT protein abundance assay, Target C (Promega Nano-Glo HiBiT Lytic Detection System, knock-in K562 cell line); assay type: cell-based, human; conditions: Homo sapiens, K562, 24 h, HiBiT K562 cell line, 24 hours, top dose 10 μM; read-out: Effect on protein abundance, Target C (IC50 category)
Method in brief: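 HiBiT knock-in K562 cells (10,000/well) were treated for 24 h at 37 °C with a 10-point 3-fold dilution series, top final concentration 10 μM, DMSO ≤0.25%. Lytic HiBiT luminescence was read, normalized to unmodified K562 and DMSO-treated controls, and IC50 was interpolated from a four-parameter logistic fit.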

[2] = decrease in HTT canonical junction (CJ) mRNA, RT-qPCR, read-out: HTT CJ IC50
[3] = canonical junction qPCR panel, Table 5, read-out: HTT (decrease in CJ mRNA levels, IC50)
[4] = canonical junction qPCR panel, Table 5, read-out: MYB (decrease in CJ mRNA levels, IC50)
[5] = decrease in MYB canonical junction (CJ) mRNA, RT-qPCR, read-out: MYB CJ IC50

Compound	IC50 (HTT mRNA; [2])	IC50 (HTT mRNA; [3])	IC50 (MYB mRNA; [4])	IC50 (MYB mRNA; [5])	GI50 [1]	IC50 (Target C)	AC50 (HTT mRNA; RT-qPCR)	AC50 (MYB mRNA; RT-qPCR)
Cc1c(O)c(-c2ccc3c(=O)n(C4CCNCC4)cc(C)c3n2)cc2cn(C)nc12 [Compound 1284]	100 to 1000 nM	< 100 nM	< 100 nM	< 100 nM	< 100 nM	100 to 1000 nM	< 100 nM	< 100 nM
Cc1cn(C2CCNCC2)c(=O)c2ccc(-c3cc4cn(C)nc4c(F)c3O)nc12 [Compound 1285]	< 100 nM	< 100 nM	< 100 nM	< 100 nM	< 100 nM	< 100 nM	< 100 nM	< 100 nM
Cc1c(O)c(-c2ncc3c(=O)n(C4CCC(N)CC4)ccc3n2)cc2cn(C)nc12 (centres unmarked) [Compound 1300, 6-((1s,4s)-4-aminocyclohexyl)-2-(6-hydroxy-2,7-dimethyl-2H-indazol-5-yl)pyrido[4,3-d]pyrimidin-5(6H)-one]	1000 to 10000 nM	100 to 1000 nM	100 to 1000 nM	100 to 1000 nM	100 to 1000 nM	1000 to 10000 nM	100 to 1000 nM	100 to 1000 nM
Cc1c(O)c(-c2ncc3c(=O)n(N4CCNCC4)ccc3n2)cc2cn(C)nc12 [Compound 1303]	100 to 1000 nM	100 to 1000 nM	100 to 1000 nM	< 100 nM	100 to 1000 nM	100 to 1000 nM	100 to 1000 nM	100 to 1000 nM
Cc1c(O)c(-c2ncc3c(=O)n(C4CCN(C)CC4)ccc3n2)cc2cn(C)nc12 [Compound 1304]	1000 to 10000 nM	100 to 1000 nM	100 to 1000 nM	100 to 1000 nM	100 to 1000 nM	1000 to 10000 nM	100 to 1000 nM	100 to 1000 nM
Cc1c(O)c(-c2ncc3c(=O)n(C4CNC4)ccc3n2)cc2cn(C)nc12 [Compound 1305, 6-(azetidin-3-yl)-2-(6-hydroxy-2,7-dimethyl-indazol-5-yl)pyrido[4,3-d]pyrimidin-5-one]	> 10000 nM	> 10000 nM	1000 to 10000 nM	1000 to 10000 nM	1000 to 10000 nM	> 10000 nM	> 10000 nM	1000 to 10000 nM
Cc1c(O)c(-c2ncc3c(=O)n(C45CCC(N)(CC4)C5)ccc3n2)cc2cn(C)nc12 [Compound 1428]	> 10000 nM	1000 to 10000 nM	100 to 1000 nM	100 to 1000 nM	< 100 nM	1000 to 10000 nM	1000 to 10000 nM	100 to 1000 nM
Cc1c(O)c(-c2ncc3c(=O)n([C@@H]4C[C@H]5CC[C@@H](C4)N5)ccc3n2)cc2cn(C)nc12 [Compound 1429, 6-[(1S,5R)-8-azabicyclo[3.2.1]octan-3-yl]-2-(6-hydroxy-2,7-dimethyl-indazol-5-yl)pyrido[4,3-d]pyrimidin-5-one]	100 to 1000 nM	100 to 1000 nM	< 100 nM	< 100 nM	100 to 1000 nM	100 to 1000 nM	100 to 1000 nM	< 100 nM
Cc1c(O)c(-c2ncc3c(=O)n([C@H]4C[C@@H](N)C4)ccc3n2)cc2cn(C)nc12 [Compound 1431, 6-((1s,3s)-3-aminocyclobutyl)-2-(6-hydroxy-2,7-dimethyl-2H-indazol-5-yl)pyrido[4,3-d]pyrimidin-5(6H)-one]	1000 to 10000 nM	1000 to 10000 nM	1000 to 10000 nM	1000 to 10000 nM	1000 to 10000 nM	1000 to 10000 nM	1000 to 10000 nM	1000 to 10000 nM
Cc1c(O)c(-c2ncc3c(=O)n([C@H]4C[C@H](N)C4)ccc3n2)cc2cn(C)nc12 [Compound 1432, 6-((1r,3r)-3-aminocyclobutyl)-2-(6-hydroxy-2,7-dimethyl-2H-indazol-5-yl)pyrido[4,3-d]pyrimidin-5(6H)-one]	1000 to 10000 nM	1000 to 10000 nM	100 to 1000 nM	100 to 1000 nM	100 to 1000 nM	1000 to 10000 nM	1000 to 10000 nM	100 to 1000 nM
Cc1c(O)c(-c2ncc3c(=O)n([C@@H]4CCN[C@H](C)C4)ccc3n2)cc2cn(C)nc12 [Compound 1434, 2-(6-hydroxy-2,7-dimethyl-indazol-5-yl)-6-(2-methyl-4-piperidyl)pyrido[4,3-d]pyrimidin-5-one]	1000 to 10000 nM	100 to 1000 nM	100 to 1000 nM	100 to 1000 nM	100 to 1000 nM	1000 to 10000 nM	100 to 1000 nM	100 to 1000 nM

The next lines start with results.

IC50 (HTT mRNA; [2])	IC50 (HTT mRNA; [3])	IC50 (MYB mRNA; [4])	IC50 (MYB mRNA; [5])	GI50 [1]	IC50 (Target C)	Compound	AC50 (HTT mRNA; RT-qPCR)	AC50 (MYB mRNA; RT-qPCR)
< 100 nM	< 100 nM	< 100 nM	< 100 nM	< 100 nM	< 100 nM	Cn1cc2cc(-c3ccc4c(=O)n(C5CCNC6(CC6)C5)ccc4n3)c(O)cc2n1 (centres unmarked) [Compound 1242]	< 100 nM	< 100 nM
> 10000 nM	> 10000 nM	> 10000 nM	> 10000 nM	> 10000 nM	> 10000 nM	COc1c(-c2ccc3c(=O)n(C4CCNCC4)ccc3n2)cc2cn(C)nc2c1C [Compound 1243]	> 10000 nM	> 10000 nM
100 to 1000 nM	100 to 1000 nM	< 100 nM	< 100 nM	100 to 1000 nM	100 to 1000 nM	Cn1cc2cc(-c3ccc4c(=O)n([C@@H]5CCNC6(CC6)C5)ccc4n3)c(O)cc2n1 [Compound 1246]	100 to 1000 nM	< 100 nM
100 to 1000 nM	< 100 nM	< 100 nM	< 100 nM	100 to 1000 nM	100 to 1000 nM	Cn1cc2nc(-c3ccc4c(=O)n(C5CCNCC5)ccc4n3)c(O)cc2n1 [Compound 1296]	< 100 nM	< 100 nM
100 to 1000 nM	100 to 1000 nM	100 to 1000 nM	100 to 1000 nM	100 to 1000 nM	100 to 1000 nM	Cc1cn2cc(-c3ccc4c(=O)n(C5CCNCC5)ccc4n3)cc(C#N)c2n1 [Compound 1297]	100 to 1000 nM	100 to 1000 nM
> 10000 nM	> 10000 nM	100 to 1000 nM	1000 to 10000 nM	1000 to 10000 nM	> 10000 nM	Cc1cn2cc(-c3ccc4c(=O)n(C5CCNC5)ccc4n3)cc(F)c2n1 (centres unmarked) [Compound 1299]	> 10000 nM	100 to 1000 nM
100 to 1000 nM	100 to 1000 nM	100 to 1000 nM	100 to 1000 nM	100 to 1000 nM	100 to 1000 nM	Cc1cn2cc(-c3ncc4c(=O)n(C5CCNCC5)ccc4n3)cc(C#N)c2n1 [Compound 1301]	100 to 1000 nM	100 to 1000 nM
> 10000 nM	> 10000 nM	> 10000 nM	> 10000 nM	> 10000 nM	> 10000 nM	Cc1cn2cc(-c3ccc4c(=O)n(C5CCNC5)ccc4n3)c(O)c(C)c2n1 (centres unmarked) [Compound 1302]	> 10000 nM	> 10000 nM
